Target: 5-HT2A (Homo sapiens (Human), UniProt P28223)
Experiment: Radioligand binding assay, [^3H]5-HT competition, 5-HT2A
Details: [^3H]5-HT radioligand, membranes of HEK293 cells expressing recombinant 5-HT2A; Ki from IC50 by Cheng-Prusoff; read-out: 5-HT2A serotonin binding Ki value

Chain of 5-HT2A (P28223 whole entry): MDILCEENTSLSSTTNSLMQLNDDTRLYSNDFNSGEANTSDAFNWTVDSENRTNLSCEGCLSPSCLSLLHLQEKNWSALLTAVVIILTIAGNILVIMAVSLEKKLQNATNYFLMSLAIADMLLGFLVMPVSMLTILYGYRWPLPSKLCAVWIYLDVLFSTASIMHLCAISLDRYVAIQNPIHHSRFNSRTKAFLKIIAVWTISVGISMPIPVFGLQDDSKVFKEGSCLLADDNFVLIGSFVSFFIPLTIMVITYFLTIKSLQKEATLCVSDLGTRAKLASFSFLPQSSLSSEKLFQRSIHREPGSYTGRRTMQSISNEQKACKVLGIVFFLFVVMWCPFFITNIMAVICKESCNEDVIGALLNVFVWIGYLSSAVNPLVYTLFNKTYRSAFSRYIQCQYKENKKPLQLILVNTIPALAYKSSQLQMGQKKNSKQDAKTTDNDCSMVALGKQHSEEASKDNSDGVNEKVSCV

Which Ki does the source give for `Cc1ncnc(C)c1-c1cc(NC(=O)Cc2cccn2C)ccc1OCCN1CCCC1` [Compound 249, N-(3-(4,6-dimethylpyrimidin-5-yl)-4-(2-(pyrrolidin-1-yl)ethoxy)phenyl)-2-(1-methyl-1H-pyrrol-2-yl)acetamide] here?
Its Ki is 78.3 nM.

With `CO[C@H]1CCN(CCOc2ccc(NC(=O)C3CC3)cc2-c2c(C)ncnc2C)C1` [Compound 352, (S)—N-(3-(4,6-dimethylpyrimidin-5-yl)-4-(2-(3-methoxypyrrolidin-1-yl)ethoxy)phenyl)cyclopropanecarboxamide] as the molecule, how does the Ki read?
Its Ki is 15.5 nM.

`Cc1ncnc(C)c1-c1cc(NC(=O)CN2CCn3cccc3C2)ccc1OCCN1CCCC1` [Compound 237, 2-(3,4-dihydro-1H-pyrrolo[1,2-a]pyrazin-2-yl)-N-[3-(4,6-dimethylpyrimidin-5-yl)-4-(2-pyrrolidin-1-ylethoxy)phenyl]acetamide] was tested. Which Ki did it give?
The Ki was 12.7 nM.

For `Cc1ncnc(C)c1-c1cc(NC(=O)c2cnoc2)ccc1OCCN1CCCC1` [Compound 218, N-(3-(4,6-dimethylpyrimidin-5-yl)-4-(2-(pyrrolidin-1-yl)ethoxy)phenyl)isoxazole-4-carboxamide], which Ki is on record?
Its Ki is 1510 nM.

`COCCN(C)CCOc1ccc(NC(=O)c2cccc(F)c2)cc1-c1c(C)ncnc1C` [Compound 378, N-(3-(4,6-dimethylpyrimidin-5-yl)-4-(2-((2-methoxyethyl)(methyl)amino)ethoxy)phenyl)-3-fluorobenzamide] was tested. Which Ki did it give?
The Ki was 12.5 nM.

`Cc1ncnc(C)c1-c1cc(NC(=O)CNC2CC2)ccc1OCCN1CCCC1` [Compound 288, 2-(Cyclopropylamino)-N-[3-(4,6-dimethylpyrimidin-5-yl)-4-(2-pyrrolidin-1-ylethoxy)phenyl]acetamide] was tested. Which Ki did it give?
Its Ki is 81.2 nM.

For `Cc1ncnc(C)c1-c1cc(NC(=O)Cc2ncsc2C)ccc1OCCN1CCCC1` [Compound 225, N-(3-(4,6-dimethylpyrimidin-5-yl)-4-(2-(pyrrolidin-1-yl)ethoxy)phenyl)-2-(5-methylthiazol-4-yl)acetamide], which Ki is on record?
Its Ki is 712 nM.

`Cc1ncnc(C)c1-c1cc(NC(=O)[C@H](F)C(C)C)ccc1OC[C@H]1CCCCN1` [Compound 442, (R)—N-(3-(4,6-dimethylpyrimidin-5-yl)-4-(((R)-piperidin-2-yl)methoxy)phenyl)-2-fluoro-3-methylbutanamide] was tested. Which Ki did it give?
The Ki was 17.1 nM.

How did the Ki turn out when `Cc1ncoc1C(=O)Nc1ccc(OCCN2CCOCC2)c(-c2c(C)ncnc2C)c1` [Compound 393, N-(3-(4,6-dimethylpyrimidin-5-yl)-4-(2-morpholinoethoxy)phenyl)-4-methyloxazole-5-carboxamide] was run?
The Ki was 11.2 nM.

With `Cc1ncnc(C)c1-c1cc(NC(=O)c2cnccc2F)ccc1OCCN1CCC1` [Compound 331, N-(4-(2-(azetidin-1-yl)ethoxy)-3-(4,6-dimethylpyrimidin-5-yl)phenyl)-4-fluoronicotinamide] as the molecule, how does the Ki read?
The Ki was 23.7 nM.

For `Cc1ncnc(C)c1-c1cc(NC(=O)CCc2ccn(C)n2)ccc1OCCN1CCCC1` [Compound 270, N-[3-(4,6-dimethylpyrimidin-5-yl)-4-(2-pyrrolidin-1-ylethoxy)phenyl]-3-(1-methylpyrazol-3-yl)propanamide], which Ki is on record?
The Ki was 51.6 nM.

For `Cc1ncnc(C)c1-c1cc(NC(=O)CC2CCOC2)ccc1OCCN1CCCC1` (centres unmarked) [Compound 228, N-(3-(4,6-dimethylpyrimidin-5-yl)-4-(2-(pyrrolidin-1-yl)ethoxy)phenyl)-2-(tetrahydrofuran-3-yl)acetamide], which Ki is on record?
The Ki was 13 nM.

How did the Ki turn out when `Cc1ncnc(C)c1-c1cc(NC(=O)C2CC2)ccc1OCCN1[C@@H]2COC[C@H]1C2` [Compound 337, N-[3-(4,6-dimethylpyrimidin-5-yl)-4-[2-[(1S,5R)-3-oxa-6-azabicyclo[3.1.1]heptan-6-yl]ethoxy]phenyl]cyclopropanecarboxamide] was run?
Its Ki is 7.29 nM.

For `Cc1ncnc(C)c1-c1cc(NC(=O)c2ccccc2)ccc1OCCN1CC(O)C1` [Compound 389, N-[3-(4,6-dimethylpyrimidin-5-yl)-4-[2-(3-hydroxyazetidin-1-yl)ethoxy]phenyl]benzamide], which Ki is on record?
Its Ki is 11.2 nM.

How did the Ki turn out when `Cc1ncnc(C)c1-c1cc(NC(=O)C2(F)CC2)ccc1O[C@@H]1CCCNC1` [Compound 452, (R)—N-(3-(4,6-dimethylpyrimidin-5-yl)-4-(piperidin-3-yloxy)phenyl)-1-fluorocyclopropane-1-carboxamide] was run?
The Ki was 15 nM.

Which Ki does the source give for `CCN(CCO)CCOc1ccc(NC(=O)C2CC2)cc1-c1c(C)ncnc1C` [Compound 358, N-(3-(4,6-dimethylpyrimidin-5-yl)-4-(2-(ethyl(2-hydroxyethyl)amino)ethoxy)phenyl)cyclopropanecarboxamide] here?
Its Ki is 66.7 nM.

How did the Ki turn out when `Cc1ncnc(C)c1-c1cc(NC(=O)Cc2ccc(F)cn2)ccc1OCCN1CCC1` [Compound 315, N-(4-(2-(azetidin-1-yl)ethoxy)-3-(4,6-dimethylpyrimidin-5-yl)phenyl)-2-(5-fluoropyridin-2-yl)acetamide] was run?
Its Ki is 12.6 nM.

With `Cc1ncnc(C)c1-c1cc(NC(=O)C2CC2)ccc1OCCN(C)CC1CC1` [Compound 368, N-(4-(2-((cyclopropylmethyl)(methyl)amino)ethoxy)-3-(4,6-dimethylpyrimidin-5-yl)phenyl)cyclopropanecarboxamide] as the molecule, how does the Ki read?
Its Ki is 19.6 nM.

For `Cc1ncnc(C)c1-c1cc(NC(=O)C2CC2)ccc1OCCN1CCN(C(=O)C(=O)O)CC1` [Compound 340, 2-[4-[2-[4-(cyclopropanecarbonylamino)-2-(4,6-dimethylpyrimidin-5-yl)phenoxy]ethyl]piperazin-1-yl]-2-oxo-acetic acid], which Ki is on record?
Its Ki is 374 nM.

Which Ki does the source give for `Cc1ncnc(C)c1-c1cc(NC(=O)C2CC2)ccc1OCCN1CCC2(CC1)CC(=O)N2` [Compound 348, N-(3-(4,6-dimethylpyrimidin-5-yl)-4-(2-(2-oxo-1,7-diazaspiro[3.5]nonan-7-yl)ethoxy)phenyl)cyclopropanecarboxamide] here?
The Ki was 66.6 nM.

Which Ki does the source give for `Cc1cnn(C)c1C(=O)Nc1ccc(OCCN2CCCC2)c(-c2c(C)ncnc2C)c1` [Compound 292, N-(3-(4,6-dimethylpyrimidin-5-yl)-4-(2-(pyrrolidin-1-yl)ethoxy)phenyl)-1,4-dimethyl-1H-pyrazole-5-carboxamide] here?
Its Ki is 17.6 nM.

`Cc1ncnc(C)c1-c1cc(NC(=O)C2CC2)ccc1OCCN1CCC(CC(=O)O)CC1` [Compound 335, 2-[1-[2-[4-(cyclopropanecarbonylamino)-2-(4,6-dimethylpyrimidin-5-yl)phenoxy]ethyl]-4-piperidyl]acetic acid] was tested. Which Ki did it give?
Its Ki is 196 nM.

`Cc1ncnc(C)c1-c1cc(NC(=O)C2CC2)ccc1OCCN1CC(F)C1` [Compound 386, N-[3-(4,6-Dimethylpyrimidin-5-yl)-4-[2-(3-fluoroazetidin-1-yl)ethoxy]phenyl]cyclopropanecarboxamide] was tested. Which Ki did it give?
The Ki was 1.48 nM.

How did the Ki turn out when `Cc1ncoc1CC(=O)Nc1ccc(OCCN2CCCC2)c(-c2c(C)ncnc2C)c1` [Compound 226, N-(3-(4,6-dimethylpyrimidin-5-yl)-4-(2-(pyrrolidin-1-yl)ethoxy)phenyl)-2-(4-methyloxazol-5-yl)acetamide] was run?
Its Ki is 714 nM.

`COCCN(C)CCOc1ccc(NC(=O)C2CC2)cc1-c1c(C)ncnc1C` [Compound 354, N-[3-(4,6-dimethylpyrimidin-5-yl)-4-[2-[2-methoxyethyl(methyl)amino]ethoxy]phenyl]cyclopropanecarboxamide] was tested. Which Ki did it give?
Its Ki is 32.1 nM.

Same assay, conditions: read-out: 5-HT2A serotonin binding Ki value

`Cc1ncnc(C)c1-c1cc(NC(=O)C2CC2)ccc1OCCN1CCC(CC(=O)O)C1` (centres unmarked) [Compound 338, 2-[1-[2-[4-(cyclopropanecarbonylamino)-2-(4,6-dimethylpyrimidin-5-yl)phenoxy]ethyl]pyrrolidin-3-yl]acetic acid] was tested. Which Ki did it give?
Its Ki is 485 nM.
